Reference: patent publication US9163012B2, “Carbamate and urea inhibitors of 11β-hydroxysteroid dehydrogenase 1” (Vitae Pharmaceuticals, Inc., priority 2009, dated 2015)

What was measured:
Type in all cases: biochemical
11β-HSD1 [1] = target: T1, 11β-HSD1 (Homo sapiens (Human), UniProt P28845); assay: Biological Test Example 4: HTRF assay of 11β-HSD1 in human liver microsomes; conditions: HTRF cortisol detection
Method: In vitro inhibition of 11β-HSD1 by test compounds is determined with HTRF (Homogeneous Time-Resolved Fluorescence) technology (cisbio international, France) detecting cortisol generated from […] by human liver microsomes. […] Cortisol generated in the reaction is then detected with a competitive immunoassay, involving two HTRF conjugates: cortisol linked to XL665 and anti-cortisol antibody labeled with Europium cryptate. The incubation period for detection reaction is typically 2 hours. […] The ratio of the two emission signals is then calculated (Em665*10000/Em615). […] Each assay also contains a calibration curve with cortisol to transform the fluorescent data into cortisol concentrations. Percent inhibition (% CTL) of each compound is determined relative to the carbenoxolone signal and IC50 curves are generated.
Target sequence in this assay (P28845 whole entry): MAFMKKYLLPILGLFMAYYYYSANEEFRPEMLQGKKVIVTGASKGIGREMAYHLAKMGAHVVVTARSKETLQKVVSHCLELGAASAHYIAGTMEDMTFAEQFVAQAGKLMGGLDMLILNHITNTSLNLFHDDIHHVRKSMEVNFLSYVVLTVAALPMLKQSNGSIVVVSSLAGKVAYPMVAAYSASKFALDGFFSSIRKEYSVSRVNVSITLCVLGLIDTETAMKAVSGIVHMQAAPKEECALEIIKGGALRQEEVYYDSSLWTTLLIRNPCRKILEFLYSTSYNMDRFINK

11β-HSD1 [2] = target: T1, 11β-HSD1; assay: Biological Test Example 3: inhibition of purified recombinant 11β-HSD1 (SPA); conditions: purified recombinant 11β-HSD1 expressed in E. coli, read-out: IC50 Range
Method: The inhibition of purified 11β-HSD1 by compounds of Formula I is measured using a Scintillation Proximity Assay. All reactions are carried out at room temperature in 96 well flexible Microbeta reaction plates. First, 1 μL of a 0.1 mM solution of a compound of Formula I is mixed in DMSO diluted in half-log increments (8 points) starting at 1 μM final concentration. To this dot is added 50 μL of substrate solution (50 mM HEPES, pH 7.4, 100 mM KCl, 5 mM NaCl, 2 mM MgCl2 containing 20 μM ^3H cortisone, 1 mM NADPH). […] The reaction is then incubated for 90 minutes, and stopped by adding 50 μl of SPA bead mix (18-β-glycyrrhetinic acid, 10 μM final, 5 mg/ml protein A coated YSi SPA beads, and 1 ug/ml α-cortisol antibody (East Coast Biologics)). The plate is shaken for 120 minutes, and the radioactivity corresponding to ^3H cortisol is measured on a Wallac Microbeta.
Target sequence in this assay (P28845 whole entry, species assumed): as the sequence (P28845 whole entry) above

11β-HSD1 [3] = target: T1, 11β-HSD1; assay: Biological Test Example 1: inhibition of a microsomal preparation of 11β-HSD1 (SPA); conditions: for Average % inhibition at 100 nM: 100 nM compound
Target sequence in this assay (P28845 whole entry): as above

Which IC50 (11β-HSD1 [1]) does the source give for N#Cc1ccc(=O)n([C@@H]2CCN(C(=O)OC3C4CC5CC3CC(O)(C5)C4)C2)c1 (stereo partly drawn) [Example 77, (R)-3-(5-Cyano-2-oxo-2H-pyridin-1-yl)-pyrrolidine-1-carboxylic acid 5-hydroxy-adamantan-2-yl ester] here?
The IC50 was greater than 10 µM.

How did the IC50 (11β-HSD1 [2]) turn out when O=C(OC1C2CC3CC(C2)CC1C3)N1CCCC1Cc1ccccc1 (stereo not drawn) [EXAMPLE 9, 2-adamantyl 2-benzylpyrrolidine-1-carboxylate] was run?
Its IC50 is less than 100 nM.

Which IC50 (11β-HSD1 [2]) does the source give for O=C(OC1C2CC3CC(C2)CC1C3)N1CCCC1c1ccccc1 (stereo not drawn) [EXAMPLE 7, 2-adamantyl 2-phenylpyrrolidine-1-carboxylate] here?
Its IC50 is less than 100 nM.

With O=C(OC1C2CC3CC(C2)CC1C3)N1CCC(Cc2ccccc2)C1 (stereo not drawn) [EXAMPLE 10, 2-adamantyl 3-benzylpyrrolidine-1-carboxylate] as the compound, how does the IC50 (11β-HSD1 [2]) read?
Its IC50 is less than 100 nM.

With Cc1ccccc1C1(CC(=O)O)CCN(C(=O)OC2C3CC4CC(C3)CC2C4)CC1 (stereo not drawn) [EXAMPLE 12, 2-(1-(2-adamantyloxycarbonyl)-4-o-tolylpiperidin-4-yl)acetic acid] as the compound, how does the IC50 (11β-HSD1 [2]) read?
Its IC50 is 100 to 1000 nM.

With O=C(OC1C2CC3CC(C2)CC1C3)N1CCC(c2ccccc2)C1 (stereo not drawn) [EXAMPLE 8, 2-adamantyl 3-phenylpyrrolidine-1-carboxylate] as the compound, how does the IC50 (11β-HSD1 [2]) read?
The IC50 was less than 100 nM.

For N#Cc1ccn([C@@H]2CCN(C(=O)OC3C4CC5CC3CC(O)(C5)C4)C2)c(=O)c1 (single isomer, unassigned; isomer 2) [Example 78 Isomer 2], which IC50 (11β-HSD1 [1]) is on record?
Its IC50 is 1.17 µM.

Which IC50 (11β-HSD1 [1]) does the source give for N#Cc1ccn([C@@H]2CCN(C(=O)OC3C4CC5CC3CC(O)(C5)C4)C2)c(=O)c1 (single isomer, unassigned; isomer 1) [Example 78 Isomer 1] here?
The IC50 was greater than 10 µM.

With N#Cc1ccnc(O[C@@H]2CCN(C(=O)OC3C4CC5CC3CC(O)(C5)C4)C2)c1 (stereo partly drawn) [Example 79, (R)-3-(4-Cyano-hyridin-2-yloxy)-pyrrolidine-1-carboxylic acid 5-hydroxy-adamantan-2-yl ester] as the compound, how does the IC50 (11β-HSD1 [1]) read?
Its IC50 is greater than 10 µM.

CCOC(=O)C1(Cc2ccccc2)CCCN(C(=O)OC2C3CC4CC(C3)CC2C4)C1 (stereo not drawn) [EXAMPLE 13, 1-(2-adamantyl) 3-ethyl 3-benzylpiperidine-1,3-dicarboxylate] was tested. Which IC50 (11β-HSD1 [2]) did it give?
The IC50 was less than 100 nM.

Which “Average % inhibition at 100 nM” value (11β-HSD1 [3]; Biological Test Example 1) does the source give for Cc1csc(C2CCN(C(=O)OC3C4CC5CC3CC(C(N)=O)(C5)C4)C2)n1 (single isomer, unassigned) [EXAMPLE 42 Isomer 1, transl-carbamoyl-4-adamantyl 3-(4-methylthiazol-2-yl)pyrrolidine-1-carboxylate] here?
Its value is 91.8%.

Which results are given for COC(=O)C1(c2ccccc2)CCN(C(=O)OC2C3CC4CC(C3)CC2C4)CC1 (stereo not drawn) [EXAMPLE 11, 1-(2-adamantyl) 4-methyl 4-phenylpiperidine-1,4-dicarboxylate]?
IC50 (11β-HSD1 [3]; IC50 Range): < 100 nM; inhibition at 0.111 µM (11β-HSD1 [3]; read-out: Average % inhibition at 111 nM): 86.3%; IC50 (11β-HSD1 [3]; read-out: IC50): 6.65 nM

Which results are given for Cn1cc(-c2cnc(C3CCN(C(=O)OC4C5CC6CC4CC(C(N)=O)(C6)C5)C3)nc2)ccc1=O (single isomer, unassigned) [EXAMPLE 58 Isomer 2, 1-carbamoyl-4-adamantyl 3-(5-(1-methyl-6-oxo-1,6-dihydropyridin-3-yl)pyrimidin-2-yl)pyrrolidine-1-carboxylate]?
Average % inhibition at 100 nM (11β-HSD1 [3]; Biological Test Example 1): 3.8%; IC50 (11β-HSD1 [3]; Biological Test Example 1, microsomes from CHO cells overexpressing human 11β-HSD1, read-out: IC50 Range): > 100 nM; IC50 (11β-HSD1 [3]; Biological Test Example 1, read-out: IC50): > 100 nM

How did the IC50 (11β-HSD1 [2]) turn out when O=C(OC1C2CC3CC(C2)CC1C3)N1CCC(N2C(=O)Cc3ccccc32)CC1 (stereo not drawn) [EXAMPLE 27, 2-adamantyl 4-(2-oxoindolin-1-yl)piperidine-1-carboxylate] was run?
Its IC50 is less than 100 nM.
